Reference: patent publication US11713305B2, “Zinc sensors for in vivo imaging of beta-cell function by MRI” (The Board of Regents of the University of Texas System, priority 2017, dated 2023)

Assay: 17O NMR of DyL4 without and with HSA
Type: physicochemical
Details: no HSA
Description: To gain more insights into this process, further ^17O NMR experiments performed using DyL4 in the presence of 0.6 mM HSA (Dy^3+ was substituted for Gd^3+ for improved fitting purposes, FIGS. 2 and 3 and Table 4).
^17O NMR experiments were performed at 9.4 T on a Bruker AVANCE III NMR spectrometer. The temperature was regulated by air flow controlled by a Bruker VT unit. The samples ([Gd^3+]=25 mM; [Dy^3+]=1 mM) were prepared in ^17O enriched water (10%) with the pH being maintained at 7.4 with 100 mM Tris buffer. The sample was loaded into a 18 μL spherical bulb (Wilmad-Lab Glass, Vineland, NJ) and placed inside a 5 mm NMR tube containing 400 μL of water to eliminate any susceptibility effects. Longitudinal relaxation rates (1/T1) were obtained by the inversion recovery method and transverse relaxation rates (1/T2) were obtained by the Carr-Purcell—Meiboom—Gill spin echo technique. The acidified water (pH=3.0) containing 10% enriched ^17O water was used as a reference for the measurements. For the DyL4 complexes (no HSA and with HSA+Zinc), acidified water solutions and 1 mM LaL4+3 mM HSA with zinc (1:1) were used as the corresponding references. The corresponding fittings were performed with the Scientist 3.0 software (Micromath®).
With Dy^3+ solutions the correlation time for dipolar relaxation is governed by the electron spin relaxation time Te which is much shorter than Tm and τR. For this reason, ^17O transversal relaxation rates predominantly originates from Curie spin relaxation (Caravan et al., 2001; Karimi and Helm, 2016). The Curie relaxation is described by Fries (Vigouroux et al., 1999) and simplified by the Swift-Connick equations (Swift and Connick, 1962): […]
The water exchange rates kex and the chemical shift differences (inner-sphere water and bulk water) Δωm can be expressed as: […]
C1 and C2 are empirical constants described by Lewis and Bleaney (1972), and represent the relative contributions of the contact and pseudocontact terms. B is the external magnetic field.

1/T2m^298: 600 ± 20 10^4 s^−1
A1: −73 ± 2 10^6rad s^−1K T^−1
A2: 0.3 ± 0.1 10^9rad s^−1K^2 T^−1
ER: 9.56 ± 2.39 kcal/mol
ΔH^‡: 9.87 ± 0.12 kcal/mol
SMILES: O=C(O)CN1CCN(CCC(=O)NCCN(Cc2ccccn2)Cc2ccccn2)CCN(CC(=O)O)CCN(CC(=O)O)CC1 [GdL2]
kex^298 (17O enriched water, TRIS buffered): 4.3 ± 0.1 10^6 s^−1
